Laboratory results from US11377442B2, “Small molecule agonists and antagonists of NR2F6 activity” (ZANDER THERAPEUTICS, INC., priority 2016, dated 2022).
Like-named read-outs stand apart in the source and are kept apart here.

How the values were obtained:
Type in all cases: cell-based
[1] = target: T1, NR2F6 (Homo sapiens, UniProt P10588); assay: NR2F6 agonist screening, Firefly signal cmpd/DMSO
T1 construct: expressed in transfected cells; also transient transfection
T1 sequence (P10588 1-404): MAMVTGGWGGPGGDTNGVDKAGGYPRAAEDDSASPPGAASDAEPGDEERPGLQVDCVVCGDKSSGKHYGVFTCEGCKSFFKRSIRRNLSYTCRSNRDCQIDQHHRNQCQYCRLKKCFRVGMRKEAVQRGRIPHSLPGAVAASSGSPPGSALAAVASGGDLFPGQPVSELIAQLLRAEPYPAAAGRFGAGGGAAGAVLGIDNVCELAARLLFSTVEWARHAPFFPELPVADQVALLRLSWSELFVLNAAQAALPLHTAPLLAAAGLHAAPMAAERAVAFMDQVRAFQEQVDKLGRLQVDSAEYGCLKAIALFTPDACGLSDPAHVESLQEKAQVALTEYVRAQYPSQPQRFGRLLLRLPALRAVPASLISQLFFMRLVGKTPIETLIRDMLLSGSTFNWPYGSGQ

[2] = system: Renilla; assay: Renilla signal in NR2F6 agonist screening, cmpd/DMSO; settings: Renilla, F4
[3] = system: HEK293 pGL4; assay: Firefly_pGL signal, cmpd/DMSO (pGL4 control cells); settings: Homo sapiens
[4] = target: T2, NR2F6 LBD (Homo sapiens, UniProt P10588); assay: NR2F6 LBD transient transfection; settings: LBD
T2 construct: expressed in transfected cells
T2 sequence (P10588 165-393 limits assumed): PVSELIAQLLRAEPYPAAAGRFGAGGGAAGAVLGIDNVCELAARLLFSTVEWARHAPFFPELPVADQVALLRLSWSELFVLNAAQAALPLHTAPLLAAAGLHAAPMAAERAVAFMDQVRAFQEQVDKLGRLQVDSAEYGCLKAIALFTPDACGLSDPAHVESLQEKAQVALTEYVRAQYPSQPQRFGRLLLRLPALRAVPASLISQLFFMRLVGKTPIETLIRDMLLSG
Procedure: FIGS. 27A and 27B show NR2F6 and LBD transient transfection, respectively, for Compound D28. Higher concentrations were excluded due to lower signal (tox effect). FIGS. 27C and 27D show NR2F6 and LBD transient transfection at different concentrations for different compounds. 9 compounds were tested on LBD transfected cells (40, 10, 2 and 0.5 μM, 4 replicates). FIGS. 27E and 27F show toxicity of Compound D28. 9 compounds were tested for cytotoxicity on LBD transfected cells (40, 10, 2 and 0.5 μM, 4 replicates). […] Cytotoxicity normalized to DMSO is shown in FIG. 27F (0% cytotoxicity corresponds to DMSO signal, 100%—zero signal).
FIGS. 34A and 34B show NR2F6 LBD transient transfection for Compound E21. 9 compounds were tested on LBD transfected cells (40, 10, 2 and 0.5 μM, 4 replicates). FIGS. 34C and 34D show NR2F6 and LBD transient transfection at different concentrations for different compounds. 9 compounds were tested on LBD transfected cells (40, 10, 2 and 0.5 μM, 4 replicates). […] Cytotoxicity normalized to DMSO is shown in FIG. 34D (0% cytotoxicity corresponds to DMSO signal, 100%—zero signal). All compounds were tested at 5, 10, 25 and 50 uM in duplicates. Dog PBMC (1×10^6 cells/mL) were activated by 10 ng/mL PMA+500 ng/mL ionomycin. Data were normalized to controls with (100%)/without (0%) PMA+ionomycin activation.
FIGS. 39A and 39B show NR2F6 LBD transient transfection for Compound F1. 9 compounds were tested on LBD transfected cells (40, 10, 2 and 0.5 μM, 4 replicates). FIGS. 39C and 39D show toxicity of NR2F6 LBD transient transfection. 9 compounds were tested for cytotoxicity on LBD transfected cells (40, 10, 2 and 0.5 μM, 4 replicates). Tox effect causes lower signal compared to DMSO. Cytotoxicity normalized to DMSO is shown in FIG. 39D (0% cytotoxicity corresponds to DMSO signal, 100%—zero signal).

[5] = read-out: Renilla, F4, cmpd/DMSO (mean)
[6] = 1% FBS, read-out: Renilla, F4, 1% FBS, cmpd/DMSO (mean)
[7] = 10% FBS, read-out: Renilla, F4, 10% FBS, cmpd/DMSO (mean)
[8] = HEK293, 0.5 uM, pGL4, read-out: Firefly pGL4, cmpd/DMSO (mean)
[9] = HEK293, 2 uM, pGL4, read-out: Firefly pGL4, cmpd/DMSO (mean)
[10] = HEK293, 10 uM, pGL4, read-out: Firefly pGL4, cmpd/DMSO (mean)
[11] = HEK293, 40 uM, pGL4, read-out: Firefly pGL4, cmpd/DMSO (mean)
[12] = HEK293, pGL4, 1% FBS, 0.5 uM, read-out: Firefly, pGL4, 1% FBS, cmpd/DMSO (mean)
[13] = HEK293, pGL4, 1% FBS, 2 uM, read-out: Firefly, pGL4, 1% FBS, cmpd/DMSO (mean)
[14] = HEK293, pGL4, 1% FBS, 10 uM, read-out: Firefly, pGL4, 1% FBS, cmpd/DMSO (mean)
[15] = HEK293, pGL4, 1% FBS, 40 uM, read-out: Firefly, pGL4, 1% FBS, cmpd/DMSO (mean)
[16] = HEK293, pGL4, 10% FBS, 0.5 uM, read-out: Firefly, pGL4, 10% FBS, cmpd/DMSO (mean)
[17] = HEK293, pGL4, 10% FBS, 2 uM, read-out: Firefly, pGL4, 10% FBS, cmpd/DMSO (mean)
[18] = HEK293, pGL4, 10% FBS, 10 uM, read-out: Firefly, pGL4, 10% FBS, cmpd/DMSO (mean)
[19] = HEK293, pGL4, 10% FBS, 40 uM, read-out: Firefly, pGL4, 10% FBS, cmpd/DMSO (mean)

SMILES: O=S1(=O)C[C@H](NC2CCCCC2)[C@@H](S(=O)(=O)c2ccccc2)C1 [Compound D111]
- Firefly F4, cmpd/DMSO (mean) ([1]; 0.5 uM): 1.1
- Firefly F4, cmpd/DMSO (mean) ([1]; 2 uM): 1.1
- Firefly F4, cmpd/DMSO (mean) ([1]; 10 uM): 2.0
- Firefly F4, cmpd/DMSO (mean) ([1]; 40 uM): 2.7
- F4, Firefly/Renilla for S/B(F4) > 3 ([1]; 10% FBS, 40 uM): 2.0
- Firefly, F4/pGL4 for S/B(F4) > 3 ([1]; 10% FBS, 40 uM): 2.7
- Firefly, F4, 1% FBS, cmpd/DMSO (mean) ([1]; 1% FBS, 0.5 uM): 1.0
- Firefly, F4, 1% FBS, cmpd/DMSO (mean) ([1]; 1% FBS, 2 uM): 1.1
- Firefly, F4, 1% FBS, cmpd/DMSO (mean) ([1]; 1% FBS, 10 uM): 1.6
- Firefly, F4, 1% FBS, cmpd/DMSO (mean) ([1]; 1% FBS, 40 uM): 2.1
- Firefly, F4, 10% FBS, cmpd/DMSO (mean) ([1]; 10% FBS, 0.5 uM): 1.6
- Firefly, F4, 10% FBS, cmpd/DMSO (mean) ([1]; 10% FBS, 2 uM): 1.6
- Firefly, F4, 10% FBS, cmpd/DMSO (mean) ([1]; 10% FBS, 10 uM): 1.1
- Firefly, F4, 10% FBS, cmpd/DMSO (mean) ([1]; 10% FBS, 40 uM): 3.6
- fold induction at 0.5 µM [2, 5]: 1
- fold induction at 2 µM [2, 5]: 1
- fold induction at 10 µM [2, 5]: 1.1
- fold induction at 40 µM [2, 5]: 1.4
- fold induction at 0.5 µM [2, 6]: 1.1
- fold induction at 2 µM [2, 6]: 1.1
- fold induction at 10 µM [2, 6]: 1.3
- fold induction at 40 µM [2, 6]: 1.7
- fold induction at 0.5 µM [2, 7]: 1.1
- fold induction at 2 µM [2, 7]: 1.1
- fold induction at 10 µM [2, 7]: 1.2
- fold induction at 40 µM [2, 7]: 1.8
- fold induction at 0.5 µM [3, 8]: 0.9
- fold induction at 2 µM [3, 9]: 1.4
- fold induction at 10 µM [3, 10]: 1.5
- fold induction at 40 µM [3, 11]: 1.8
- fold induction at 0.5 µM [3, 12]: 1
- fold induction at 2 µM [3, 13]: 1.2
- fold induction at 10 µM [3, 14]: 1.2
- fold induction at 40 µM [3, 15]: 1.2
- fold induction at 0.5 µM [3, 16]: 1.2
- fold induction at 2 µM [3, 17]: 1.2
- fold induction at 10 µM [3, 18]: 1.3
- fold induction at 40 µM [3, 19]: 1.3
- Firefly LBD, cmpd/DMSO (mean) ([4]; 0.5 uM): 1.1
- Firefly LBD, cmpd/DMSO (mean) ([4]; 2 uM): 1.4
- Firefly LBD, cmpd/DMSO (mean) ([4]; 10 uM): 1.6
- Firefly LBD, cmpd/DMSO (mean) ([4]; 40 uM): 1.9

SMILES: C[C@@H]1C[C@H](C)CN([C@H]2CS(=O)(=O)C[C@@H]2S(=O)(=O)c2ccccc2)C1 [Compound D112]
- Firefly F4, cmpd/DMSO (mean) ([1]; 0.5 uM): 1.2
- Firefly F4, cmpd/DMSO (mean) ([1]; 2 uM): 1.9
- Firefly F4, cmpd/DMSO (mean) ([1]; 10 uM): 2.8
- Firefly F4, cmpd/DMSO (mean) ([1]; 40 uM): 2.6
- F4, Firefly/Renilla for S/B(F4) > 3 ([1]; 1% FBS, 40 uM): 1.6
- Firefly, F4/pGL4 for S/B(F4) > 3 ([1]; 1% FBS, 40 uM): 2.7
- F4, Firefly/Renilla for S/B(F4) > 3 ([1]; 10% FBS, 40 uM): 2.3
- Firefly, F4/pGL4 for S/B(F4) > 3 ([1]; 10% FBS, 40 uM): 3.7
- Firefly, F4, 1% FBS, cmpd/DMSO (mean) ([1]; 1% FBS, 0.5 uM): 1.1
- Firefly, F4, 1% FBS, cmpd/DMSO (mean) ([1]; 1% FBS, 2 uM): 0.9
- Firefly, F4, 1% FBS, cmpd/DMSO (mean) ([1]; 1% FBS, 10 uM): 1.6
- Firefly, F4, 1% FBS, cmpd/DMSO (mean) ([1]; 1% FBS, 40 uM): 3.2
- Firefly, F4, 10% FBS, cmpd/DMSO (mean) ([1]; 10% FBS, 0.5 uM): 1.2
- Firefly, F4, 10% FBS, cmpd/DMSO (mean) ([1]; 10% FBS, 2 uM): 1.2
- Firefly, F4, 10% FBS, cmpd/DMSO (mean) ([1]; 10% FBS, 10 uM): 1.5
- Firefly, F4, 10% FBS, cmpd/DMSO (mean) ([1]; 10% FBS, 40 uM): 5.0
- fold induction at 0.5 µM [2, 5]: 1
- fold induction at 2 µM [2, 5]: 1.1
- fold induction at 10 µM [2, 5]: 1.3
- fold induction at 40 µM [2, 5]: 1.6
- fold induction at 0.5 µM [2, 6]: 1.1
- fold induction at 2 µM [2, 6]: 1.1
- fold induction at 10 µM [2, 6]: 1.4
- fold induction at 40 µM [2, 6]: 2
- fold induction at 0.5 µM [2, 7]: 1
- fold induction at 2 µM [2, 7]: 1
- fold induction at 10 µM [2, 7]: 1.3
- fold induction at 40 µM [2, 7]: 2.1
- fold induction at 0.5 µM [3, 8]: 1
- fold induction at 2 µM [3, 9]: 1.2
- fold induction at 10 µM [3, 10]: 2.2
- fold induction at 40 µM [3, 11]: 2.2
- fold induction at 0.5 µM [3, 12]: 1.3
- fold induction at 2 µM [3, 13]: 1.2
- fold induction at 10 µM [3, 14]: 1.7
- fold induction at 40 µM [3, 15]: 1.2
- fold induction at 0.5 µM [3, 16]: 1.3
- fold induction at 2 µM [3, 17]: 1
- fold induction at 10 µM [3, 18]: 1.5
- fold induction at 40 µM [3, 19]: 1.3
- Firefly LBD, cmpd/DMSO (mean) ([4]; 0.5 uM): 1.1
- Firefly LBD, cmpd/DMSO (mean) ([4]; 2 uM): 1.2
- Firefly LBD, cmpd/DMSO (mean) ([4]; 10 uM): 1.8
- Firefly LBD, cmpd/DMSO (mean) ([4]; 40 uM): 1.9
